These results are taken from patent US6495348B1, “Mitomycin biosynthetic gene cluster” (priority 1993, dated 2002).

The test system of experiment [1] is PJS103. The method, then:
Construction of mct-mrd co-expression plasmid. […] The fragment contained the mrd gene under the control of the T7 promoter, including transcriptional terminator sequences (rrnB T1) upstream and downstream of mrd.
The cultures were grown overnight at 37° C. and colony-forming units (CFUS) were determined.
Co-expression of mct and mrd in E. coli. To address the notion that MRD and MCT proteins participate as components of a binding protein-dependent drug export system, the mct and mrd genes were co-expressed in E. coli.

In experiment [2] the test system is S. lavendulae wild-type. Put plainly: MC resistance of S. lavendulae, plate count. Format: cell-based, Streptomyces lavendulae. The source says:
To establish a physiological role for MCT in S. lavendulae, the corresponding gene (mct) was inactivated by insertion of the aphII gene from transposon Tn5 to give pDHS7704.

On to `COC1=C(C)C(=O)C2=C(C1=O)[C@H](COC(N)=O)[C@@]1(O)[C@@H]3[C@H](CN21)N3C` (some centres unmarked) [Mitomycin B, mitomycin B], for which the “resistance to mitomycin B” value in experiment [1] is “high-level resistance”.
With `CO[C@@]12[C@H](COC(N)=O)C3=C(C(=O)C(C)=C(N)C3=O)N1C[C@@H]1N[C@@H]12` [MC, mitomycin C], the MC resistance level in experiment [2] is more than 150 µg/mL.
